Data on three compounds can be found in publication PMC6437697 (Journal of Medicinal Chemistry, 2019).

Experiment in all cases: KINOMEscan
Common to all, as to assay type: binding
Holding throughout (conditions): read-out: % control activity remaining

One assay concerns the target T1, EPHB3 (Homo sapiens, UniProt P54753).
T1 construct: purchased Eurofins DiscoverX KINOMEscan
T1 sequence (P54753 34-998): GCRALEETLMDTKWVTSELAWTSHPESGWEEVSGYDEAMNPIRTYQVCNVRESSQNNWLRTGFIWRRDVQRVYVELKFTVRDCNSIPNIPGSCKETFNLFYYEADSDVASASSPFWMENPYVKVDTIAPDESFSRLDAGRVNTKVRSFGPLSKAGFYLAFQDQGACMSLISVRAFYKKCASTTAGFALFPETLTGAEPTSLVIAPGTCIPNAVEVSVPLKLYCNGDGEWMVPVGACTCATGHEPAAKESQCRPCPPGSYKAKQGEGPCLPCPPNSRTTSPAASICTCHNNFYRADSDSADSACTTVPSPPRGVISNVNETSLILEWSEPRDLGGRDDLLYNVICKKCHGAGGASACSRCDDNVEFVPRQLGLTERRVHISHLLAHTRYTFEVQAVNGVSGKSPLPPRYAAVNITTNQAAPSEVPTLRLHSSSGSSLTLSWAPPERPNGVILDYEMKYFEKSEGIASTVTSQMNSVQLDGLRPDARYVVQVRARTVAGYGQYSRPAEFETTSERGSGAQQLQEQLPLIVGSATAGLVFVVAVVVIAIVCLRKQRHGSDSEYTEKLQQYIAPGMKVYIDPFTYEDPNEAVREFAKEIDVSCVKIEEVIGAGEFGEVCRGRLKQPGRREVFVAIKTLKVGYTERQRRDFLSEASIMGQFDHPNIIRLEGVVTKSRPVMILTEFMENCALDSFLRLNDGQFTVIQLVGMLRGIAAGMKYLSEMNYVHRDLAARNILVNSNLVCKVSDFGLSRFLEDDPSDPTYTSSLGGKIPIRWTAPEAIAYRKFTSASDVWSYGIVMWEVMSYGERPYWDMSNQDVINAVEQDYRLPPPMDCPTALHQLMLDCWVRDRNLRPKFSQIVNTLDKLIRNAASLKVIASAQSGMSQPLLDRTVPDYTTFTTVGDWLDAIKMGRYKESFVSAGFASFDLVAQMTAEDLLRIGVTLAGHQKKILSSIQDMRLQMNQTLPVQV

Assay [1] concerns the target T2, RSK3(Kin.Dom.1-N-terminal) (Homo sapiens, UniProt Q15349).
T2 construct: RSK3(Kin.Dom.1-N-terminal); purchased Eurofins DiscoverX KINOMEscan

Another assay addresses T3, GRK1 (Homo sapiens, UniProt Q15835).
T3 construct: purchased Eurofins DiscoverX KINOMEscan
T3 sequence (Q15835 1-563): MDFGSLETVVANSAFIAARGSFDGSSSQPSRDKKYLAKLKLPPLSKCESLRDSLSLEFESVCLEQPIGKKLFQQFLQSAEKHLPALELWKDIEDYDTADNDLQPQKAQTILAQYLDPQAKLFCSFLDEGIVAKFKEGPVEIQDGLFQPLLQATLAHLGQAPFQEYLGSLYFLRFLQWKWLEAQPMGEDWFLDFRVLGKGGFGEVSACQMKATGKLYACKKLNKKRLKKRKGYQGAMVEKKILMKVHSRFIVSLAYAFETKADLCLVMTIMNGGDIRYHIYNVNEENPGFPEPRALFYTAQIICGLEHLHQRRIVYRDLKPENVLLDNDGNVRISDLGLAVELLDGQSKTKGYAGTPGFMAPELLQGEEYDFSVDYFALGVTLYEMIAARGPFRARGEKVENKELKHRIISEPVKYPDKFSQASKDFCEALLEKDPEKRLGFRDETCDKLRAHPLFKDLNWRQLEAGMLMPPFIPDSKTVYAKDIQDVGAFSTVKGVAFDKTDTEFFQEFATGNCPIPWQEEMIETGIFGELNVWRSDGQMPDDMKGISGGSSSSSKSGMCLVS

In the next assay the target is T4, EPHB6 (Homo sapiens, UniProt O15197).
T4 construct: purchased Eurofins DiscoverX KINOMEscan
T4 sequence (O15197 32-1021): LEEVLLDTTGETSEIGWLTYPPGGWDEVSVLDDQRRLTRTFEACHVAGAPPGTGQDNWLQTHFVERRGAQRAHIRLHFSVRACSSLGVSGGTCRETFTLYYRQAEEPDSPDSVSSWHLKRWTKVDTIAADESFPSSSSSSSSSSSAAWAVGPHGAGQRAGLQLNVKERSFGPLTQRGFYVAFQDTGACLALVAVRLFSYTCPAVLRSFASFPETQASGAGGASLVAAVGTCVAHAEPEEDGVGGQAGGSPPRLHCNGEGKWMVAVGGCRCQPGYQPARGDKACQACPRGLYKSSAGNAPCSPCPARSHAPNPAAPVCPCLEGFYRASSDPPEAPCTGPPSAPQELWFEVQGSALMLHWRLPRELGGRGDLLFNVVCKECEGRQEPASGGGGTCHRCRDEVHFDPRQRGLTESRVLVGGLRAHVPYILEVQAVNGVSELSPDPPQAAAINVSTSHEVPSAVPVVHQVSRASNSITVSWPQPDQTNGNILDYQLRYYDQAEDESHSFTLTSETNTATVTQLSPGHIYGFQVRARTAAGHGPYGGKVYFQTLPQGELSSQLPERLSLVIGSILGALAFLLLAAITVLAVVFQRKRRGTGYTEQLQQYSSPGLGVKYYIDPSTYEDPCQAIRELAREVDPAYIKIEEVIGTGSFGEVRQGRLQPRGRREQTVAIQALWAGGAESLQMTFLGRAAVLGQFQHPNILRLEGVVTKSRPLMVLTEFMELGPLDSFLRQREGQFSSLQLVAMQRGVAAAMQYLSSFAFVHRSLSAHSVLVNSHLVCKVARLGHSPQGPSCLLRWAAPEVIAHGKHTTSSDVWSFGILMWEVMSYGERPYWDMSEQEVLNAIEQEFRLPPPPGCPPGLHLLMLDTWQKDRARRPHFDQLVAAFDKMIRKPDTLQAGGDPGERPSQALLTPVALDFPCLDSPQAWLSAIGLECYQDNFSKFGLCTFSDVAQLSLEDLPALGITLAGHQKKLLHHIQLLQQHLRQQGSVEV

For the next assay, the target named is T5, CAMK2G (Homo sapiens, UniProt Q13555).
T5 construct: purchased Eurofins DiscoverX KINOMEscan

The target in a further assay is T6, YSK1 (Homo sapiens, UniProt O00506).
T6 construct: purchased Eurofins DiscoverX KINOMEscan
T6 sequence (O00506 whole entry): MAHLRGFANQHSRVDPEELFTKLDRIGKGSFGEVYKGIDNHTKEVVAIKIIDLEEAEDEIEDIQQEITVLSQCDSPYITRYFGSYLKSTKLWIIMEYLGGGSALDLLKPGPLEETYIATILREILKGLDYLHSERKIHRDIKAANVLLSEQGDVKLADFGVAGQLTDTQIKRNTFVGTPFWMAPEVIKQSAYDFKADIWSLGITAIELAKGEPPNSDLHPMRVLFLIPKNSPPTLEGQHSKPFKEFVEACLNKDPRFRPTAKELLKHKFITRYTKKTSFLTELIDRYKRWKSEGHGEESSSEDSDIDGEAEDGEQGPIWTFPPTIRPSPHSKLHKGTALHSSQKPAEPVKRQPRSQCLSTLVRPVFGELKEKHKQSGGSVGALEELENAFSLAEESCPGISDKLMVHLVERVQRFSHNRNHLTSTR

T5 sequence (Q13555 whole entry): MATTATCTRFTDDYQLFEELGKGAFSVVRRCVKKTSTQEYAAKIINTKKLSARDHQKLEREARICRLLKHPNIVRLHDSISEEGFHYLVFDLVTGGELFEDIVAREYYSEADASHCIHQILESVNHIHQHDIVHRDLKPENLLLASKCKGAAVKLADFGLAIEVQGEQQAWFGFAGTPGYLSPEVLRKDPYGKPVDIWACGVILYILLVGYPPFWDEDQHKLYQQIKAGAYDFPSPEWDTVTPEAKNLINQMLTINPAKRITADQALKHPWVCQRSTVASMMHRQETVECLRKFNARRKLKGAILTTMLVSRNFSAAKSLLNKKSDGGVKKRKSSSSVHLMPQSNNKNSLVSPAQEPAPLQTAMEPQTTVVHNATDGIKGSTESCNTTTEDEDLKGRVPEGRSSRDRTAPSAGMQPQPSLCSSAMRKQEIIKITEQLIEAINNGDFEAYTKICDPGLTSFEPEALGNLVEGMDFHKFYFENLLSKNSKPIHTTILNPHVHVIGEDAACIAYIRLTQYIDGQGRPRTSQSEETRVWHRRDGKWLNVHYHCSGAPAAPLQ
T2 sequence (Q15349 59-318 limits assumed): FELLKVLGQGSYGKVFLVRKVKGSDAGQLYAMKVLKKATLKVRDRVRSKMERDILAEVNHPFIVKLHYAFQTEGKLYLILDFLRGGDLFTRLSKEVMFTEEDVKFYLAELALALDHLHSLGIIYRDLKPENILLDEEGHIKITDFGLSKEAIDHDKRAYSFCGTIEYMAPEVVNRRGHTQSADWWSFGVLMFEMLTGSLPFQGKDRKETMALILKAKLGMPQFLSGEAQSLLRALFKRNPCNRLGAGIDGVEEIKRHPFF

For `Clc1cc(NCC2CC2)c2ncc(-c3ccc4[nH]ncc4c3)n2n1` [compound 2, 6-Chloro-N-(cyclopropylmethyl)-3-(1H-indazol-5-yl)imidazo[1,2-b]pyridazin-8-amine], the remaining binding at 1 µM on EPHB3 worked out at 82%; in assay [1], 82%; on GRK1, 100%; at EPHB6, 68%; at CAMK2G, 100%; on YSK1, 92%.
Turning to `O=C(CN1CCOCC1)N[C@H]1CC[C@H](Nc2cc(Cl)nn3c(-c4ccc5[nH]ncc5c4)cnc23)CC1` [compound 26], the remaining binding at 1 µM was 88% on EPHB3; 52% in assay [1]; 80% on GRK1; 89% at EPHB6; 52% on CAMK2G; 100% on YSK1.
Take `CN1CCC(CNc2cc(Cl)nn3c(-c4cc5nc(Nc6ccccc6)[nH]c5cc4F)cnc23)CC1` [compound 31, 6-Chloro-3-(6-fluoro-2-(phenylamino)-1H-benzo[d]imidazol-5-yl)-N-((1-methylpiperidin-4-yl)methyl)imidazo[1,2-b]pyridazin-8-amine]: the remaining binding at 1 µM at EPHB3 was found to be 92%; in assay [1], 78%; at GRK1, 82%; at EPHB6, 83%; on CAMK2G, 100%; on YSK1, 99%.
